{
  "source": "patent US8901276B2",
  "about": "“Peptide reagents and methods for detection of colon dysplasia” (The Regents of the University of Michigan, priority 2010, dated 2014)",
  "key": {"[1]": {"system": "excised polyps", "test": "Ex vivo peptide binding to excised polyps", "parameters": "species or system CPC;Apc mice", "conditions": "100 μM, 5 min", "description": "Polyps from CPC;Apc mice (n=3 mice, 5 polyp pairs) were excised and washed 3× in PBS. The polyps were incubated in 100 μM peptide solution for 5 minutes and subsequently washed 3× with 1×PBS. Polyps were grossly imaged using the small animal endoscope to view binding to the polyp as a whole. Pairs of polyps (one candidate, one control) were imaged at a time to allow for the calculation of a candidate peptide to Control peptide 1 binding ratio for each pair analyzed. An average binding ratio was calculated ± one standard deviation. A similar procedure to determine mean grey scale values for image analysis was followed for the ex vivo polyps as described above for the in vivo polyps."}, "[2]": {"system": "adenomatous polyps", "test": "Confocal microscopy of polyp biopsy after in vivo peptide administration", "parameters": "species or system CPC;Apc mice", "conditions": "biopsy after in vivo FITC-peptide administration", "description": "Preferential binding of Peptide compared to the Control peptide 1 on the adenomatous polyps was confirmed with confocal microscopy. A polyp biopsy was taken after 5′-FITC-labeled peptide administration in vivo, incubated in 1 μg/mL Hoechst dye for 5 minutes to stain living nuclei, rinsed 3× with 1×PBS and imaged on a Leica Confocal Microscope (Leica Microsystems, Bannockburn, Ill.)."}},
  "note": "Where no end group is shown, it is not given here.",
  "data": [
    {"sequence": "QPIHPNNM (also: FITC or Cy5.5 label) [Peptide 1, tested FITC- or Cy5.5-labeled]", "values": [
      {"measurement": "increase in binding compared to Control peptide 1", "setting": "[1]", "value": "~2", "unit": "fold"},
      {"measurement": "binding to adenomas, confocal images of biopsied polyps", "setting": "[2]", "value": "bound more to adenomas than the Control peptide 1"}
    ]}
  ]
}
